Laboratory results as given in PubChem BioAssay AID2060626 (Molecular Pharmacology Branch, DTP, NCI, 2025).
Values joined by “and” are separate entries in the source; they are usually repeats but may differ in a detail not shown here. Identical values can stand only once.

Tested on: 168753-222-R-J1-PDC complex spheroid viability
Assay: Anticancer human tumor 168753-222-R-J1-PDC patient-derived bladder carcinoma cell line growth inhibition [CLK]
Conditions: for viability, T/C: stronger effect = lower value
In short: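 Patient-derived tumor cells grown as complex spheroids with HUVEC endothelial cells and mesenchymal stem cells, treated with drug combinations. Concentrations descend in half-log steps from near clinical Cmax, or from 10 microM if Cmax unknown.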

[1] = curve of first compound, second compound 0.0316 µM
[2] = curve of first compound, second compound 0.1 µM
[3] = curve of first compound, second compound 0.316 µM
[4] = curve of first compound, second compound 1 µM
[5] = curve of first compound, second compound 3.16 µM
[6] = curve of first compound, second compound 10 µM
[7] = second compound 0.0316 µM, first compound 0.0316 µM
[8] = second compound 0.0316 µM, first compound 0.1 µM
[9] = second compound 0.0316 µM, first compound 0.316 µM
[10] = second compound 0.0316 µM, first compound 1 µM
[11] = second compound 0.0316 µM, first compound 3.16 µM
[12] = second compound 0.0316 µM, first compound 10 µM
[13] = second compound 0.1 µM, first compound 0.0316 µM
[14] = second compound 0.1 µM, first compound 0.1 µM
[15] = second compound 0.1 µM, first compound 0.316 µM
[16] = second compound 0.1 µM, first compound 1 µM
[17] = second compound 0.1 µM, first compound 3.16 µM
[18] = second compound 0.1 µM, first compound 10 µM
[19] = second compound 0.316 µM, first compound 0.0316 µM
[20] = second compound 0.316 µM, first compound 0.1 µM
[21] = second compound 0.316 µM, first compound 0.316 µM
[22] = second compound 0.316 µM, first compound 1 µM
[23] = second compound 0.316 µM, first compound 3.16 µM
[24] = second compound 0.316 µM, first compound 10 µM
[25] = second compound 1 µM, first compound 0.0316 µM
[26] = second compound 1 µM, first compound 0.1 µM
[27] = second compound 1 µM, first compound 0.316 µM
[28] = second compound 1 µM, first compound 1 µM
[29] = second compound 1 µM, first compound 3.16 µM
[30] = second compound 1 µM, first compound 10 µM
[31] = second compound 3.16 µM, first compound 0.0316 µM
[32] = second compound 3.16 µM, first compound 0.1 µM
[33] = second compound 3.16 µM, first compound 0.316 µM
[34] = second compound 3.16 µM, first compound 1 µM
[35] = second compound 3.16 µM, first compound 3.16 µM
[36] = second compound 3.16 µM, first compound 10 µM
[37] = second compound 10 µM, first compound 0.0316 µM
[38] = second compound 10 µM, first compound 0.1 µM
[39] = second compound 10 µM, first compound 0.316 µM
[40] = second compound 10 µM, first compound 1 µM
[41] = second compound 10 µM, first compound 3.16 µM
[42] = second compound 10 µM, first compound 10 µM
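Further: viability measured after seven days of drug exposure.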
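Wherever viability, T/C is given: luminescence signal used as surrogate for viable cell amount; 100% = DMSO vehicle control wells.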

Question: For `C=CC(=O)N1CCN(c2nc(=O)n(-c3c(C)ccnc3C(C)C)c3nc(-c4c(O)cccc4F)c(F)cc23)C(C)C1` (stereo not drawn) + CNC(=O)c1ccc(Nc2nc(OC3CCCC3)c3c(-c4ccc5nc(C)oc5c4)c[nH]c3n2)c(OC)c1, which IC50 [1] is on record?
Answer: > 10 µM

Question: What about the IC50 [2] of the same compound?
Answer: > 10 µM

Question: And the IC50 [3]?
Answer: > 10 µM

Question: And the IC50 [4]?
Answer: < 0.0316 µM

Question: What about the IC50 [5] of the same compound?
Answer: < 0.0316 µM

Question: What about the IC50 [6] of the same compound?
Answer: < 0.0316 µM

Question: And the viability, T/C [7]?
Answer: 107%

Question: What about the viability, T/C [8] of the same compound?
Answer: 96.7%

Question: And the viability, T/C [9]?
Answer: 111%

Question: What about the viability, T/C [10] of the same compound?
Answer: 128%

Question: And the viability, T/C [11]?
Answer: 117%

Question: What about the viability, T/C [12] of the same compound?
Answer: 113%

Question: And the viability, T/C [13]?
Answer: 104%

Question: What about the viability, T/C [14] of the same compound?
Answer: 98.5%

Question: And the viability, T/C [15]?
Answer: 97.5%

Question: What about the viability, T/C [16] of the same compound?
Answer: 107%

Question: And the viability, T/C [17]?
Answer: 102%

Question: What about the viability, T/C [18] of the same compound?
Answer: 95.2%

Question: What about the viability, T/C [19] of the same compound?
Answer: 85.7%

Question: What about the viability, T/C [20] of the same compound?
Answer: 83.5%

Question: And the viability, T/C [21]?
Answer: 74.8%

Question: What about the viability, T/C [22] of the same compound?
Answer: 78.3%

Question: And the viability, T/C [23]?
Answer: 94.1%

Question: And the viability, T/C [24]?
Answer: 82.2%

Question: And the viability, T/C [25]?
Answer: 51.7%

Question: And the viability, T/C [26]?
Answer: 35.4%

Question: And the viability, T/C [27]?
Answer: 45.4%

Question: And the viability, T/C [28]?
Answer: 47.8%

Question: And the viability, T/C [29]?
Answer: 41.4%

Question: And the viability, T/C [30]?
Answer: 30.9%

Question: And the viability, T/C [31]?
Answer: 23.3%

Question: And the viability, T/C [32]?
Answer: 25.6%

Question: And the viability, T/C [33]?
Answer: 26.6%

Question: And the viability, T/C [34]?
Answer: 26.3%

Question: And the viability, T/C [35]?
Answer: 30.4%

Question: And the viability, T/C [36]?
Answer: 19.4%

Question: And the viability, T/C [37]?
Answer: 18.8%

Question: What about the viability, T/C [38] of the same compound?
Answer: 23.5%

Question: What about the viability, T/C [39] of the same compound?
Answer: 20.9%

Question: And the viability, T/C [40]?
Answer: 24.5%

Question: And the viability, T/C [41]?
Answer: 19.4%

Question: And the viability, T/C [42]?
Answer: 16.4%

Question: With `CCCS(=O)(=O)Nc1ccc(F)c(C(=O)c2c[nH]c3ncc(-c4ccc(Cl)cc4)cc23)c1F` + CN1CCN(c2cc(C(=O)Nc3cc4cc(-c5cnn(C)c5)ccc4cn3)ccn2)CC1 as the compound, how does the IC50 [1] read?
Answer: > 10 µM

Question: And the IC50 [2]?
Answer: 7.83 µM

Question: And the IC50 [3]?
Answer: < 0.0316 µM

Question: What about the IC50 [4] of the same compound?
Answer: < 0.0316 µM

Question: What about the IC50 [5] of the same compound?
Answer: < 0.0316 µM

Question: And the IC50 [6]?
Answer: < 0.0316 µM

Question: What about the viability, T/C [7] of the same compound?
Answer: 96.7%

Question: What about the viability, T/C [8] of the same compound?
Answer: 116%

Question: And the viability, T/C [9]?
Answer: 112%

Question: And the viability, T/C [10]?
Answer: 122%

Question: What about the viability, T/C [11] of the same compound?
Answer: 112%

Question: What about the viability, T/C [12] of the same compound?
Answer: 59.5%

Question: What about the viability, T/C [13] of the same compound?
Answer: 80.1%

Question: And the viability, T/C [14]?
Answer: 94.7%

Question: And the viability, T/C [15]?
Answer: 58.3%

Question: And the viability, T/C [16]?
Answer: 88.5%

Question: And the viability, T/C [17]?
Answer: 86.5%

Question: What about the viability, T/C [18] of the same compound?
Answer: 41.5%

Question: What about the viability, T/C [19] of the same compound?
Answer: 15.8%

Question: And the viability, T/C [20]?
Answer: 17.8%

Question: And the viability, T/C [21]?
Answer: 16%

Question: And the viability, T/C [22]?
Answer: 14.7%

Question: What about the viability, T/C [23] of the same compound?
Answer: 20.1%

Question: And the viability, T/C [24]?
Answer: 22.1%

Question: And the viability, T/C [25]?
Answer: 0.38%

Question: What about the viability, T/C [26] of the same compound?
Answer: 0.46%

Question: What about the viability, T/C [27] of the same compound?
Answer: 0.31%

Question: And the viability, T/C [28]?
Answer: 0.33%

Question: What about the viability, T/C [29] of the same compound?
Answer: 0.96%

Question: What about the viability, T/C [30] of the same compound?
Answer: 2.48%

Question: What about the viability, T/C [31] of the same compound?
Answer: 0.11%

Question: And the viability, T/C [32]?
Answer: 1.81%

Question: And the viability, T/C [33]?
Answer: 0.12%

Question: And the viability, T/C [34]?
Answer: 0.11%

Question: What about the viability, T/C [35] of the same compound?
Answer: 2.3%

Question: And the viability, T/C [36]?
Answer: 1.36%

Question: And the viability, T/C [37]?
Answer: 0.16%

Question: And the viability, T/C [38]?
Answer: 2.21%

Question: And the viability, T/C [39]?
Answer: 0.61%

Question: What about the viability, T/C [40] of the same compound?
Answer: 0.3%

Question: What about the viability, T/C [41] of the same compound?
Answer: 3.61%

Question: And the viability, T/C [42]?
Answer: 3.12%

Question: Which results are given for `C=CC(=O)Nc1cc(Nc2nccc(-c3cn(C)c4ccccc34)n2)c(OC)cc1N(C)CCN(C)C` + CNC(=O)c1ccc(Nc2nc(OC3CCCC3)c3c(-c4ccc5nc(C)oc5c4)c[nH]c3n2)c(OC)c1?
Answer: IC50 [1]: > 0.3 µM; IC50 [2]: > 0.3 µM; IC50 [3]: > 0.3 µM; IC50 [4]: < 0.000949 µM; IC50 [5]: < 0.000949 µM; IC50 [6]: < 0.000949 µM; viability, T/C (second compound 0.0316 µM, first compound 0.000949 µM): 122%; viability, T/C (second compound 0.0316 µM, first compound 0.003 µM): 96.3%; viability, T/C (second compound 0.0316 µM, first compound 0.00949 µM): 102%; viability, T/C (second compound 0.0316 µM, first compound 0.03 µM): 102%; viability, T/C (second compound 0.0316 µM, first compound 0.0949 µM): 107%; viability, T/C (second compound 0.0316 µM, first compound 0.3 µM): 103%; viability, T/C (second compound 0.1 µM, first compound 0.000949 µM): 91.1%; viability, T/C (second compound 0.1 µM, first compound 0.003 µM): 87%; viability, T/C (second compound 0.1 µM, first compound 0.00949 µM): 86.7%; viability, T/C (second compound 0.1 µM, first compound 0.03 µM): 76.8%; viability, T/C (second compound 0.1 µM, first compound 0.0949 µM): 91.7%; viability, T/C (second compound 0.1 µM, first compound 0.3 µM): 90.2%; viability, T/C (second compound 0.316 µM, first compound 0.000949 µM): 73.5%; viability, T/C (second compound 0.316 µM, first compound 0.003 µM): 69.6%; viability, T/C (second compound 0.316 µM, first compound 0.00949 µM): 69.3%; viability, T/C (second compound 0.316 µM, first compound 0.03 µM): 63.8%; viability, T/C (second compound 0.316 µM, first compound 0.0949 µM): 71.8%; viability, T/C (second compound 0.316 µM, first compound 0.3 µM): 62.5%; viability, T/C (second compound 1 µM, first compound 0.000949 µM): 37.1%; viability, T/C (second compound 1 µM, first compound 0.003 µM): 39.1%; viability, T/C (second compound 1 µM, first compound 0.00949 µM): 38.5%; viability, T/C (second compound 1 µM, first compound 0.03 µM): 40.8%; viability, T/C (second compound 1 µM, first compound 0.0949 µM): 30.8%; viability, T/C (second compound 1 µM, first compound 0.3 µM): 29%; viability, T/C (second compound 3.16 µM, first compound 0.000949 µM): 18.2%; viability, T/C (second compound 3.16 µM, first compound 0.003 µM): 19.3%; viability, T/C (second compound 3.16 µM, first compound 0.00949 µM): 19.5%; viability, T/C (second compound 3.16 µM, first compound 0.03 µM): 22.8%; viability, T/C (second compound 3.16 µM, first compound 0.0949 µM): 19.6%; viability, T/C (second compound 3.16 µM, first compound 0.3 µM): 16.9%; viability, T/C (second compound 10 µM, first compound 0.000949 µM): 16.3%; viability, T/C (second compound 10 µM, first compound 0.003 µM): 19.8%; viability, T/C (second compound 10 µM, first compound 0.00949 µM): 18.5%; viability, T/C (second compound 10 µM, first compound 0.03 µM): 15.6%; viability, T/C (second compound 10 µM, first compound 0.0949 µM): 19.1%; viability, T/C (second compound 10 µM, first compound 0.3 µM): 15.6%

Question: For `COc1c(OCCCN2CCOCC2)ccc2c3n(c(=NC(=O)c4cnc(N)nc4)nc12)CCN3`, which viability, T/C (compound 0.00316 µM) is on record?
Answer: 59.7% and 74.2%

Question: What about the viability, T/C (compound 0.01 µM) of the same compound?
Answer: 44.1% and 48.3%

Question: What about the viability, T/C (compound 0.0316 µM) of the same compound?
Answer: 10.2% and 17%

Question: And the viability, T/C (compound 0.1 µM)?
Answer: 13.6% and 15.3%

Question: What about the viability, T/C (compound 0.316 µM) of the same compound?
Answer: 7.59% and 8.3%

Question: What about the viability, T/C (compound 1 µM) of the same compound?
Answer: 2.26% and 3.63%

Question: And the IC50 (curve of compound)?
Answer: 0.00647 µM and 0.00895 µM
